Experimental data as given in patent US4246271A, “4-Phenyl-2-thiazolyl-oxamates useful in the treatment of asthma” (priority 1978, dated 1981).

What was measured:
[1] = Solubilities; type: physicochemical; details: for Solubility in DMSO: DMSO / dimethyl sulfoxide
[2] = system: mice; test: Acute toxicity after a single oral administration in mice (Miller & Tainter); type: in vivo; details: 1000 mg/kg, 10 mice per lot, suspension of Tween 80 + distilled water
Description: (§1) (1) Toxicology (acute toxicity after a single oral administration in mice by the method of Miller & Tainter (Proc. Soc. Exper. Biol. Med., 1944, 57, 261)).
(§2) The products are administered in a suspension of Tween 80+distilled water. The mortality is noted at the end of 7 days. The following table summarizes the results obtained: […]

[3] = as above; type: in vivo; details: mouse, in vivo, mice, mortality noted at the end of 7 days, read-out: LD50 approximate
Description: as §1, §2

[4] = system: rats; test: Cutaneous passive anaphylaxis test; type: in vivo; details: Rattus norvegicus, po; per os, 10 minutes before intravenous injection of antigen + stain; tested at 30, 5, 1 and 0.2 mg/kg, lots of 10 rats; suspension in Tween and water; read-out: ED50 (dose which reduces by one-half the leakage of the stain as compared with the controls)
Description: The results are obtained on the cutaneous passive anaphylaxis test in accordance with the method of Broeklehurst W. E. in Handbook of Experimental Immunology, Editor Weiz D. M., Blackwell Scientific Publications, Oxford and Edinborough, pages […] (1967).
(a) Prepare the antiserum on rats sensitized by antigen; inject it intradermally.
(b) Leave a waiting time of 24 to 48 hours.
(c) Administration of the product to be tested per os 10 minutes before operation (d) (intravenous simultaneously with d).
(d) Intravenous injection of the antigen+stain.
(e) Sacrifice 30 minutes afterwards and visualize the antigen-antibody reaction by the leakage of the stain due to the increase of the capillary permeability under the combined influence of histamine and SRSA.
This action is expressed as ED50, i.e., the dose which reduces by one-half the leakage of the stain as compared with the controls.
The tests were carried out in succession with 30, 5, 1 and 0.2 mg/kg on homogeneous lots of 10 rats, with due consideration of their insolubility in water. These compounds are administered in suspension in Tween™ and water.

Row | SMILES | Solubility in ethanol ([1]; ethanol) [%] | Solubility in water [1] | Mortality at end of 7th day [2] | LD50 at 168 h [3] [mg/kg] | ED50 [4] [mg/kg] | Solubility in dimethyl acetamid ([1]; dimethyl acetamid) [%] | Solubility in ethanol (in words) ([1]; ethanol) | Solubility in methyl pyrrolidone [1] [%] | Solubility in DMSO [1] [%]
1 | Nc1nc(-c2ccc(Cl)cc2)cs1 [4-parachlorophenyl-2-amino-thiazole] | 15 | insoluble |  |  |  |  |  |  | 
2 | CCOC(=O)C(=O)Nc1nc(-c2ccccc2)cs1 [Example 1, Ethyl-(4-phenyl-2-thiazolyl)-oxamate] |  | insoluble | 1 | > 1000 | 1 | 20 | insoluble | 25 | 
3 | CCOC(=O)C(=O)Nc1nc(-c2ccc(Cl)cc2)cs1 [Example 2, Ethyl-(4-p-chlorophenyl-2-thiazolyl)-oxamate] |  | insoluble | 0 | > 1000 |  |  | insoluble | 4 | 1
4 | CCOC(=O)C(=O)Nc1nc(-c2ccc(OC)cc2)cs1 [Example 3, Ethyl-(4-paramethoxyphenyl-2-thiazolyl)-oxamate] |  | insoluble | 1 | > 1000 | 2 |  | insoluble | 50 | 50
5 | Cc1cccc(-c2csc(NC(=O)C(=O)OCc3ccccc3)n2)c1 [Example 4, Benzyl-(4-metamethylphenyl-2-thiazolyl)-oxamate] |  |  | 1 | > 1000 |  |  |  |  | 
6 | O=C(Nc1nc(-c2ccccc2Br)cs1)C(=O)OCc1ccccc1 [Example 5, Benzyl-(4-orthobromophenyl-2-thiazolyl)-oxamate] |  |  | 2 | > 1000 |  |  |  |  | 
